{
  "source": "patent EP1095657A2",
  "about": "“Compositions for the regulation of cytokine activity” (priority 1992, dated 1994)",
  "key": {"[1]": {"system": "adjuvant arthritis in Lewis rats", "experiment": "Adjuvant arthritis (AA) in rats", "format": "in vivo"}, "[2]": {"system": "respiratory distress after aerosolized OVA challenge", "experiment": "Experimental allergic bronchial asthma in rats", "format": "in vivo, Brown Norway rats", "settings": "30 ng s.c. on day 30, challenge on day 35; saline group Grade 3 or 4", "procedure": "To assess the ability of substance H-9392 to prevent a bronchial asthma attack, 6 male Brown Norway rats were primed to ovalbumin (OVA) by subcutaneous injection of 1 mg of OVA in suspension with 200 mg AlOH/ml 0.9% saline solution accompanied by intraperitoneal injection of 1 ml solution containing 6x10^6 heat killed Bordetella pertussis bacteria (Pasteur Merieux, S.V.), on day zero. Subsequent challenges consisted of a 5 minute period of inhalation of OVA (1 mg/ml solution) aerosolized in a Devilbiss Nebulizer operated at an airflow of 6 L/min. Respiratory Distress (RD) responses were scored as Grade 0, no signs of distress; Grade 1, tachypnea; Grade 2, moderate labored breathing; Grade 3 severe labored breathing with mouth open; Grade 4, loss of consciousness and muscular tone. Sixteen days following primary immunization all animals were exposed to an initial aerosolized challenge to establish the positive control. The animals were coded so that the observer was ignorant of the subject animal's history.\nOn day thirty, the animals were divided into 2 groups and given either saline (control Group A) or 30 ng of substance H-9392, s.c., (Group B) and challenged on day 35 as above."}},
  "data": [
    {"smiles": "O=C(O)C1=C[C@H](O)[C@@H](OS(=O)(=O)O)[C@H](O[C@H]2[C@H](O)[C@@H](NS(=O)(=O)O)C(O)O[C@@H]2CO)O1", "note": "(stereo partly drawn) [H-9392, 2-O-sulfate-4-deoxy-4-en-iduronic acid-(α-1,4)-2-deoxy-2-N-sulfateglucosamine]", "values": [
      {"measurement": "suppression of the inflammation of AA", "setting": "[1]; 120 ng/rat or 0.6 ng/gm rat s.c. weekly from 1 day before induction, 24 days after induction", "value": "up to 90%"},
      {"measurement": "effect on AA, in words", "setting": "[1]; weekly or daily, beginning at day 0 or at day 12", "value": "positive suppression of the severity of AA in all cases"},
      {"measurement": "effect on AA at 30 days post-induction, in words", "setting": "[1]; weekly s.c. from day 12 to day 26, 120 ng disaccharide or 100 µg dexamethasone phosphate per rat", "value": "almost complete suppression"},
      {"measurement": "respiratory distress after challenge, in words", "setting": "[2]", "value": "mere tachypnea"}
    ]}
  ]
}
